Assays:
[1] = tested on: CT26 (mouse colon carcinoma cell line); assay: MTT assay cytotoxicity, CT26; format: cell-based
Method: (§1) Oxaliplatin was included for comparison as a reference substance, and was tested under the same conditions.
(§2) The cells were harvested from the culture flasks during the exponential growth phase, counted and 5 × 10^3 cells/well were seeded into 96-well culture plates. About 24 h later, after the cell adherence, each well was treated with 100 μL of tested complexes, which had been serially diluted two-fold in medium to concentrations ranging from 300 to 2.3 μM. All cells were incubated at 37 °C in an atmosphere containing 5% CO2 and at absolute humidity for 24 and 72 h. After incubation, the culture medium was removed from each well and MTT solution (5 mg/mL in phosphate buffered saline (PBS)) was added to each well and cells were incubated 4 h under culture conditions. The cell-free supernatants were suctioned off, and dimethyl sulfoxide (DMSO) (150 μL) and glycine buffer (20 μL) were added to dissolve the formazan crystals. The plates were shaken for 10 min. The optical density of each well was determined at 595 nm using a multiplate reader (Zenyth 3100, Anthos Labtec Instruments GmbH, Salzburg, Austria). Experiments were performed in triplicates and repeated in three independent series. The percentage of cell viability was determined by comparison with untreated controls according to formula: % of viable cells = (E − B)/(S − B) × 100, where B is for the background of the medium alone, S is for the total viability/spontaneous death of untreated target cells, and E is for the experimental well. The IC50 values were determined by plotting the percentage viability versus concentration on a logarithmic graph and reading off the concentration at which 50% of cells remained viable relative to the control.

[2] = tested on: HCT116 (human colon carcinoma cell line); assay: MTT assay cytotoxicity, HCT116; format: cell-based
Method: as §1, §2

[3] = tested on: SW480 (human colon carcinoma cell line); assay: MTT assay cytotoxicity, SW480; format: cell-based
Method: as §1, §2

[4] = tested on: CT26 cells; assay: LDH release assay, CT26; format: cell-based, mouse; settings: CT26, 300 μM, 24 h
Method: (§3) The cytotoxicity of used complexes was examined by an In Vitro Toxicology Assay Kit, Lactic Dehydrogenase based (Sigma-Aldrich, St. Lous, MO, USA). Cells were prepared and treated with complexes in the same manner as for the MTT assay. Additional wells were prepared as high control cells were treated with 1/10 volume of LDH Assay Lysis Solution for 45 min. Cells exposed to medium were used as low controls. After treatment, supernatant (50 μL) was transferred to new plate and incubated with an equivalent volume of Lactate Dehydrogenase Assay Mixture (which was prepared by mixing equal volumes of LDH Assay Substrate Solution, LDH Assay Dye Solution, and 1’ LDH Assay Cofactor Preparation. After incubating the plates in the dark for 30 min at room temperature, reaction was terminated by the addition of 10 μL of 1 N HCl to each well and data were acquired by spectrophotometry at 490 nm. The percentage of dead cells was calculated using the formula [44]:% of dead cells = (exp. value − low control)/(high control − low control) × 100.

[5] = tested on: HCT116 cells; assay: LDH release assay, HCT116; format: cell-based, human; settings: HCT116, 300 μM, 24 h
Method: as §3

[6] = tested on: HCT116 cells; assay: Annexin V-FITC/PI double staining, flow cytometry, HCT116; format: cell-based, human; settings: HCT116, IC50 concentrations, 24 h
Method: (§4) For the detection of apoptosis, the Annexin V binding capacity of treated cells was examined by flow cytometry using an Annexin V-fluorescein isothiocyanate (FITC) Detection Kit (BD Pharmingen, San Jose, CA, USA) according to the manufacturer’s protocol. […] Following the incubation, all cells were trypsinized, washed in PBS, centrifuged, and resuspended in 100 μL of ice-cold binding buffer (10× binding buffer: 0.1 M Hepes/NaOH (pH 7.4), 1.4 M NaCl, 25 mM CaCl2) at a concentration of 1 × 10^6/mL. Annexin V-FITC and propidium iodide (PI) were added to the 100 μL of cell suspension and incubated for 15 min at room temperature (25 °C) in the dark. After incubation, 400 μL of 1× binding buffer was added to each tube and stained cells were analyzed within 1 h using a flow cytometer FACS Calibur (BD Biosciences, San Jose, CA, USA). Data were analyzed using FlowJo Software version VX [45]. Measurements were presented as density plots of Annexin V-FITC and PI stainings.

[7] = tested on: CT26 cells; assay: Cell cycle analysis, CT26; format: cell-based, mouse; settings: CT26, IC50 doses, 24 h
Method: (§5) Both the apoptosis induction and/or cell cycle arrest may reduce the viability of carcinoma cells. Thus, we next investigated the impact of ruthenium(II) terpyridine complexes on possible cell cycle disturbances in colon carcinoma cells.
(§6) Cell cycle analysis was performed with a Vybrant® DyeCycle™ Ruby stain (Thermo Fisher Scientific, Waltham, MA, USA) according to the manufacturer’s instructions. CT26, HCT116, and SW480 cells stained with Vybrant DyeCycle Ruby were analyzed by a Fluorescence-activated cell sorting (FACS) Calibur flow Cytometer (BD Biosciences, San Jose, CA, USA). The cell cycle distribution was analyzed using FlowJo software and the results were presented as histograms.

[8] = tested on: HCT116 cells; assay: Cell cycle analysis, HCT116; format: cell-based, human; settings: HCT116, IC50 doses, 24 h
Method: as §5, §6

[9] = tested on: syngeneic CT26 mouse colon carcinoma; assay: Heterotopic CT26 colon carcinoma growth in mice; format: in vivo, BALB/c mice; settings: 2 mg/kg i.p.; for tumor weights after necropsy versus vehicle-treated mice: four times in total; for tumor growth inhibition (TGI): four times in total from day six, last day of the experiment; for necrosis fields in primary tumor, histology: hematoxylin and eosin
Method: In view of the proven cytotoxic effects of ruthenium(II) terpyridine complexes in vitro, the next goal of the present study was to examine the ability of tested compounds to inhibit murine colon cancer growth and progression in vivo. CT26 cells were heterotopically implanted into the shaved flank of the mice.
Male BALB/c mice of 6–8 weeks of age were used in all experiments. Mice were housed in a temperature-controlled environment (22–24 °C) with a 12 h light–dark cycle and were given standard laboratory food and water ad libitum. […] All experiments were approved (01-8461/2) by, and conducted in accord with, the Guidelines of the Animal Ethics Committee of the Faculty of Medical Sciences of the University of Kragujevac (Kragujevac, Serbia).
The size of primary CT26 colon tumors were assessed morphometrically using electronic calipers in two dimensions. The tumor volume was calculated as follows: tumor volume (mm^3) = (L × W^2)/2, where L is the longest and W the shortest […] of the tumor in millimeters. Results were expressed as means of tumor volumes ± SD. The percent tumor growth inhibition (TGI) was determined according to the formula, TGI(%) = (Vc − Vt)/(Vc − Vo) × 100, where Vc − Vt are the median of control and treated groups at the end of the study and Vo at the start.

[10] = Behaviour in aqueous solution by 1H NMR in D2O; format: physicochemical; settings: ambient temperature, forms aqua species
Method: (§7) These new resonances, which grew at the expense of those of the parent compound, were attributed to the aqua species [Ru(Cl-tpy)(en)(OH2)]^2+ (1aq) and [Ru(Cl-tpy)(dach)(OH2)]^2+ (2aq), respectively (Scheme 1).
(§8) The compounds [Ru(Cl-tpy)(en)Cl][Cl] […] All other chemicals were used as purchased without further purification. NMR spectra were recorded on a Varian Gemini 200 MHz spectrometer. All chemical shifts were referenced to TSP (trimethylsilylpropionic acid) at d = 0.00. All NMR spectra were run at 295 K.

[11] = Interaction with glutathione by 1H NMR in D2O; settings: 10 mM in D2O, GSH added to equilibrated solution
Method: as §7
The addition of GSH to an equilibrated solution of Ru-1 (10 mM) in D2O induced very slow changes in the ^1H NMR spectrum (Figure 2). A new set of resonances, attributable to the thiolate adduct [Ru(Cl-tpy)(en)(GS-S)] (3), became apparent in the ^1H NMR spectrum after 6 h. […] (4).
as §8

[12] = set-up: method as in PMID 26855406; settings: cited from earlier work
[13] = tested on: HeLa, A549 and MRC-5 cells; set-up: method as in PMID 26855406, PMID 28088012; settings: previously conducted study; read-out: IC50, range over HeLa, A549 and MRC-5; cited from earlier work
[14] = Systemic toxicity in CT26 tumor-bearing mice (body and organ weight, serum biochemistry, histopathology); settings: 2 mg/kg i.p.
Method: Finally, in order to examine the safety of ruthenium(II) terpyridine complexes in vivo, the mice’s body weight was measured before tumor cell inoculation and at the end of experiment. The toxicity associated with ruthenium(II) terpyridine complexes treatment was assessed at biochemical and histopathological levels. The serum concentrations of the biochemical markers ALT, AST, urea, and creatinine were obtained to evaluate the liver and renal functions. In addition, the histopathological changes in the target organs, liver, heart, lungs, and kidneys were evaluated.
BALB/c mice bearing syngeneic CT26 mouse colon carcinoma were selected as the test system, as this experimental model has been extensively used for this kind of research in the literature [47]. For heterotopic colon carcinoma model, 1 × 10^6 CT26 cells suspended in 100 μL of DMEM were injected subcutaneously into the left flank of mice. Tumor-bearing mice were examined every 3 days for tumor development and progression and monitoring body weight. Animals were randomized into 4 groups with 6 tumor-bearing mice that were ear-tagged and followed-up individually throughout the study. The intraperitoneal administration of complexes or saline began on sixth day after post-tumor inoculation. Each drug was administered at doses of 2 mg/kg dissolved in 200 μL saline, twice weekly for four times in total (Scheme 2).
To study the potential side effects of ruthenium(II) terpyridine complexes, treated mice were monitored for weight loss. […] Blood samples were collected from abdominal aorta of each mouse in tubes without anticoagulant, and a separated serum was processed and analyzed by the chemistry analyzer Roche Cobas Mira Plus. The levels of serum urea, creatinine, and liver enzymes—aspartate aminotransferase (AST) and alanine aminotransferase (ALT)—were determined to assess the renal and hepatic function. After sacrificed, organ weights of the heart, liver, lungs, and kidneys, as well as the tumors, were determined for each animal, and the relative organ weight was calculated as % body weight. The tissue sections of various organs (heart, liver, lungs, and kidneys) and tumor were isolated for histopathological analysis. The tissues fixed in 4% paraformaldehyde were embedded in paraffin, cut into thin sections and mounted on glass slides. The tissue sections were stained with hematoxylin and eosin for microscopic examination.

[15] = tested on: SW480 cells; assay: LDH release assay, SW480; format: cell-based, human; settings: SW480, 300 μM, 24 h
Method: as §3

[16] = tested on: CT26 cells; assay: Annexin V-FITC/PI double staining, flow cytometry, CT26; format: cell-based, mouse; settings: CT26, IC50 concentrations, 24 h
Method: as §4

| Structure (SMILES) | IC50 ([1]; 24 h exposure) | IC50 ([1]; 72 h exposure) | IC50 ([2]; 24 h exposure) | IC50 ([2]; 72 h exposure) | IC50 ([3]; 24 h exposure) | IC50 ([3]; 72 h exposure) | LDH levels (LDH release, % of dead cells) [5] | late apoptosis in HCT116 cells, in words [6] | cell cycle disturbance [7] | tumor weights after necropsy versus vehicle-treated mice [9] | tumor growth inhibition (TGI) [9] | necrosis fields in primary tumor, histology [9] | lability of the chloride ligand in aqueous solution [10] | IC50 [13] | serum concentration of creatinine ([14]; tumor-bearing mice) | LDH levels (LDH release, % of dead cells) [15] | serum level of ALT ([14]; tumor-bearing mice) | serum level of AST compared to the control group ([14]; tumor-bearing mice) | also measured |
| --- | --- | --- | --- | --- | --- | --- | --- | --- | --- | --- | --- | --- | --- | --- | --- | --- | --- | --- | --- |
| Clc1cc(-c2ccccn2)nc(-c2ccccn2)c1.NCCN.[Cl-].[Cl-].[Ru+2] [Ru-1, [Ru(Cl-tpy)(en)Cl][Cl]] | 43.3 ± 3 µM | 50.9 ± 4 µM | 31.8 ± 2 µM | 19.1 ± 1 µM | 50.4 ± 4 µM | 44.7 ± 4 µM | 8.37% | induced late apoptosis | G2/M phase arrest | markedly lower | 53.41% | The largest part of the primary tumor of Ru-1-treated mice was necrotic | very labile | 32.8 to 66.3 µM | did not affect | – | – | – | LDH levels (LDH release, % of dead cells) [4]: 36.43%; cell cycle disturbance [8]: G2/M phase arrest; time after which thiolate adduct with GSH became apparent in 1H NMR [11]: 6 h; log Po/w [12]: −1.33; histological changes in kidney tissue [14]: hyaline cylinders and focal hyaline glomerular change; serum concentration of urea compared to saline-treated mice ([14]; tumor-bearing mice): did not affect; histological changes in heart tissue ([14]; in comparison with oxaliplatin and saline-treated mice): No significant histological changes |
| Clc1cc(-c2ccccn2)nc(-c2ccccn2)c1.NC1CCCCC1N.[Cl-].[Cl-].[Ru+2] [Ru-2, [Ru(Cl-tpy)(dach)Cl][Cl]] | 167 ± 12 µM | 148 ± 11 µM | 50.4 ± 5 µM | 20.4 ± 1 µM | 156 ± 12 µM | 86.4 ± 7 µM | 2.35% | – | – | slightly smaller than tumors from the control group, but without statistical significance | 17.56% | larger compared to necrosis fields in the tumors of untreated mice and oxaliplatin-treated mice | very labile | 72.8 to 111 µM | – | 33.07% | no difference | no difference | serum urea concentration, excess compared to all other groups ([14]; tumor-bearing mice): ~ 3 units |
| O=C1[O][Pt]2([NH][C@@H]3CCCC[C@H]3[NH]2)[O]C1=O [Oxaliplatin, oxaliplatin, reference compound] | 54.5 ± 4 µM | 25.2 ± 2 µM | 9.7 ± 8 µM | 0.1 µM | 100 ± 9 µM | 1.3 µM | 0% | induced late apoptosis | G2/M phase arrest | markedly lower | 51.39% | no greater than the necrosis field in untreated mice tumors | – | – | did not affect | 2.20% | no difference | no difference | apoptotic death of CT26 tumor cells, in words [16]: moderately induced apoptotic death |
